Measurements from publication PMC3808535, “Pannexin1 Channel Proteins in the Zebrafish Retina Have Shared and Unique Properties” (PLoS ONE, 2013).
Changes are numbered by the printed parent chain.

How the values were obtained:
Experiment in all cases: ethidium dye uptake in transfected N2a cells
Format in all cases: cell-based
drPanx1a [1] = molecular target: T1, drPanx1a (Danio rerio, UniProt A0A8M1PG01, C76E); settings: 3 mM ATP, 20 uM EtBr, 5 min, pH 7.4; endogenous Panx1 and P2X7-R in N2a host
T1 construct: gene panx1a; full length aa 1-417 (natural Cys at position 76), C-terminal EYFP fusion (pEYFP-N1), transient in mouse N2a cells
T1 sequence (A0A8M1PG01 1-417 C76E): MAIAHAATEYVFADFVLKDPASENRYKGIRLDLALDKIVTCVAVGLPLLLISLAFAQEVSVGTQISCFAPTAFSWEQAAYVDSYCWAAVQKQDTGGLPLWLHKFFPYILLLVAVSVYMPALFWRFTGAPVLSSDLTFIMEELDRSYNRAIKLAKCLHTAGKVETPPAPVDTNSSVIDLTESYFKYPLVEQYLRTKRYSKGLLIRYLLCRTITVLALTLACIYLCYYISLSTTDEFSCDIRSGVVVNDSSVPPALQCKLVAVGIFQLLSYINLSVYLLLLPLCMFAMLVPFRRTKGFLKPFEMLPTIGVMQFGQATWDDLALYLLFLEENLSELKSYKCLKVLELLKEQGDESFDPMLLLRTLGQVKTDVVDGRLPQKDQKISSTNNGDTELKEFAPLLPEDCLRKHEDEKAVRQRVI

drPanx1b [2] = molecular target: T2, drPanx1b (Danio rerio, UniProt F1QSR7, H238Y)
T2 construct: gene panx1b; full length aa 1-422, C-terminal EYFP fusion (pEYFP-N1), transient in mouse N2a cells
T2 sequence (F1QSR7 1-422 H238Y): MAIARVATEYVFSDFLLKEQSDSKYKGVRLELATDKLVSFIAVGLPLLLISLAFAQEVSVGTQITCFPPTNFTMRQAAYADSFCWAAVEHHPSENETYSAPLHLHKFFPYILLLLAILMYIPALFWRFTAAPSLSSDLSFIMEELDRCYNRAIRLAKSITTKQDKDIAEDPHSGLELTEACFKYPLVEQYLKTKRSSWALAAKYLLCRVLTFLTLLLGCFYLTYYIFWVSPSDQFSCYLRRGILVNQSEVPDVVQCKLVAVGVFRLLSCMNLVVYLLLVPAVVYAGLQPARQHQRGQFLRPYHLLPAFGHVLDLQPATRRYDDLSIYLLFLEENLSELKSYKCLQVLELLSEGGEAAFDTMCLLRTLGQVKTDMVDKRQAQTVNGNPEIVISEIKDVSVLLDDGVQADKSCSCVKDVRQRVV

drPanx1a [3] = molecular target: T3, drPanx1a (Danio rerio, UniProt A0A8M1PG01)
T3 construct: gene panx1a; full length aa 1-417 (natural Cys at position 76), C-terminal EYFP fusion (pEYFP-N1), transient in mouse N2a cells
T3 sequence (A0A8M1PG01 1-417): T1 sequence (A0A8M1PG01 1-417 C76E) with E76C

drPanx1b [4] = molecular target: T4, drPanx1b (Danio rerio, UniProt F1QSR7, R75A/H238Y); settings: 500 uM ATP, 20 uM EtBr, 5 min, pH 7.4; endogenous Panx1 and P2X7-R in N2a host
T4 construct: gene panx1b; full length aa 1-422, C-terminal EYFP fusion (pEYFP-N1), transient in mouse N2a cells
T4 sequence (F1QSR7 1-422 R75A/H238Y): T2 sequence (F1QSR7 1-422 H238Y) with R75A

mPanx1 [5] = molecular target: T5, mPanx1 (Mus musculus, UniProt Q9JIP4); settings: 20 uM EtBr, 5 min, pH 7.4; channel permeant dye
T5 construct: gene Panx1; full length aa 1-426, C-terminal EYFP fusion (pEYFP-N1), transient in mouse N2a cells
T5 sequence (Q9JIP4 whole entry, the tested form may be a part): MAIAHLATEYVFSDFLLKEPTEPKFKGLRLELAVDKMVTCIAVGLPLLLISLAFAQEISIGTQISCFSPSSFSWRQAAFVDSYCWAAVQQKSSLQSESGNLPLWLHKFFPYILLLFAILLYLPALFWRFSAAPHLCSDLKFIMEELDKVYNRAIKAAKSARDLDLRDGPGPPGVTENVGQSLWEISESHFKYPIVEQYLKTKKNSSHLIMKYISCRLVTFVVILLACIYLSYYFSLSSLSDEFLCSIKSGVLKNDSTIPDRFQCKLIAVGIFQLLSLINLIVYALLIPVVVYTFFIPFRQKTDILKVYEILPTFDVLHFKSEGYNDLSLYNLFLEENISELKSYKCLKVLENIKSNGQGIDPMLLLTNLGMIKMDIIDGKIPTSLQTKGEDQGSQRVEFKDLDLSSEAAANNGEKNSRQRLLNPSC

drPanx1a [6] = molecular target: T1, drPanx1a; settings: 100 uM BBG, 20 uM EtBr, 5 min, pH 7.4; endogenous Panx1 and P2X7-R in N2a host
drPanx1a [7] = molecular target: T6, drPanx1a (Danio rerio, UniProt A0A8M1PG01, C76R); settings: 100 uM BBG, 20 uM EtBr, 5 min, pH 7.4; endogenous Panx1 and P2X7-R in N2a host
T6 construct: gene panx1a; full length aa 1-417 (natural Cys at position 76), C-terminal EYFP fusion (pEYFP-N1), transient in mouse N2a cells
T6 sequence (A0A8M1PG01 1-417 C76R): T1 sequence (A0A8M1PG01 1-417 C76E) with E76R

drPanx1b [8] = molecular target: T7, drPanx1b (Danio rerio, UniProt F1QSR7, R75E/H238Y); settings: 100 uM BBG, 20 uM EtBr, 5 min, pH 7.4; endogenous Panx1 and P2X7-R in N2a host
T7 construct: gene panx1b; full length aa 1-422, C-terminal EYFP fusion (pEYFP-N1), transient in mouse N2a cells
T7 sequence (F1QSR7 1-422 R75E/H238Y): T2 sequence (F1QSR7 1-422 H238Y) with R75E

drPanx1b [9] = molecular target: T4, drPanx1b; settings: 100 uM BBG, 20 uM EtBr, 5 min, pH 7.4; endogenous Panx1 and P2X7-R in N2a host
drPanx1a [10] = molecular target: T8, drPanx1a (Danio rerio, UniProt A0A8M1PG01, C76K); settings: 100 uM BBG, 20 uM EtBr, 5 min, pH 7.4; endogenous Panx1 and P2X7-R in N2a host
T8 construct: gene panx1a; full length aa 1-417 (natural Cys at position 76), C-terminal EYFP fusion (pEYFP-N1), transient in mouse N2a cells
T8 sequence (A0A8M1PG01 1-417 C76K): T1 sequence (A0A8M1PG01 1-417 C76E) with E76K

mPanx1 [11] = molecular target: T5, mPanx1; settings: read-out: % inhibition at 100 uM
drPanx1a [12] = molecular target: T9, drPanx1a (Danio rerio, UniProt A0A8M1PG01, C76A); settings: 100 uM BBG, 20 uM EtBr, 5 min, pH 7.4; endogenous Panx1 and P2X7-R in N2a host
T9 construct: gene panx1a; full length aa 1-417 (natural Cys at position 76), C-terminal EYFP fusion (pEYFP-N1), transient in mouse N2a cells
T9 sequence (A0A8M1PG01 1-417 C76A): T1 sequence (A0A8M1PG01 1-417 C76E) with E76A

drPanx1b [13] = molecular target: T10, drPanx1b (Danio rerio, UniProt F1QSR7, R75K/H238Y); settings: 100 uM BBG, 20 uM EtBr, 5 min, pH 7.4; endogenous Panx1 and P2X7-R in N2a host
T10 construct: gene panx1b; full length aa 1-422, C-terminal EYFP fusion (pEYFP-N1), transient in mouse N2a cells
T10 sequence (F1QSR7 1-422 R75K/H238Y): T2 sequence (F1QSR7 1-422 H238Y) with R75K

drPanx1b [14] = molecular target: T11, drPanx1b (Danio rerio, UniProt F1QSR7, R75C/H238Y); settings: 100 uM BBG, 20 uM EtBr, 5 min, pH 7.4; endogenous Panx1 and P2X7-R in N2a host
T11 construct: gene panx1b; full length aa 1-422, C-terminal EYFP fusion (pEYFP-N1), transient in mouse N2a cells
T11 sequence (F1QSR7 1-422 R75C/H238Y): T2 sequence (F1QSR7 1-422 H238Y) with R75C

SMILES: Nc1ncnc2c1ncn2[C@@H]1O[C@H](COP(=O)(O)OP(=O)(O)OP(=O)(O)O)[C@@H](O)[C@H]1O [ATP]
- % inhibition at 3 mM (drPanx1a [1]): ATP: drPanx1a-C76E > C76A ≥ WT
- inhibition at 500 µM (drPanx1b [2]): 27.3 ± 1.9%
- inhibition at 3000 µM (drPanx1a [3]; read-out: % inhibition at 3 mM): 20.2 ± 2.2%
- % inhibition at 500 uM (drPanx1b [4]): drPanx1b WT ≥ R75K ≥ R75C > R75E ≥ R75A

SMILES: CC[n+]1c(-c2ccccc2)c2cc(N)ccc2c2ccc(N)cc21 [Ethidium bromide]
- ethidium dye uptake in transfected N2a cells (mPanx1 [5]): EtBr uptake was significantly increased in mPanx1

SMILES: CCOc1ccc(Nc2ccc(C(=C3C=CC(=[N+](CC)Cc4cccc(S(=O)(=O)[O-])c4)C=C3C)c3ccc(N(CC)Cc4cccc(S(=O)(=O)O)c4)cc3C)cc2)cc1 [brilliant blue G]
- % inhibition at 100 uM (drPanx1a [6]): BBG: drPanx1a-C76R > C76K > WT ≥ C76A > C76E
- % inhibition at 100 uM (drPanx1a [7]): BBG: drPanx1a-C76R > C76K > WT
- inhibition at 100 µM (drPanx1b [2]): 64.1 ± 1%
- inhibition at 100 µM (drPanx1a [3]): 33.4 ± 1.7%
- % inhibition at 100 uM (drPanx1b [8]): drPanx1b WT > R75C > R75K ≥ R75A ≥ R75E
- % inhibition at 100 uM (drPanx1b [9]): drPanx1b WT > R75C > R75K ≥ R75A ≥ R75E
- % inhibition at 100 uM (drPanx1a [10]): BBG: drPanx1a-C76R > C76K > WT
- inhibition at 100 µM (mPanx1 [11]): 40.6 ± 1.4%
- % inhibition at 100 uM (drPanx1a [12]): BBG: drPanx1a-C76R > C76K > WT ≥ C76A > C76E
- % inhibition at 100 uM (drPanx1b [13]): drPanx1b WT > R75C > R75K ≥ R75A ≥ R75E
- % inhibition at 100 uM (drPanx1b [14]): drPanx1b WT > R75C > R75K ≥ R75A ≥ R75E
